≈ marks a conversion by molar mass, not a printed value. Calls of active or inactive are those of the source. No cut-off for these calls is given here.
Assays:
[1] = target: T1, Histone-lysine N-methyltransferase EHMT2 (Homo sapiens, UniProt Q96KQ7); experiment: Inhibition of G9a (unknown origin)
T1 sequence (Q96KQ7 whole entry): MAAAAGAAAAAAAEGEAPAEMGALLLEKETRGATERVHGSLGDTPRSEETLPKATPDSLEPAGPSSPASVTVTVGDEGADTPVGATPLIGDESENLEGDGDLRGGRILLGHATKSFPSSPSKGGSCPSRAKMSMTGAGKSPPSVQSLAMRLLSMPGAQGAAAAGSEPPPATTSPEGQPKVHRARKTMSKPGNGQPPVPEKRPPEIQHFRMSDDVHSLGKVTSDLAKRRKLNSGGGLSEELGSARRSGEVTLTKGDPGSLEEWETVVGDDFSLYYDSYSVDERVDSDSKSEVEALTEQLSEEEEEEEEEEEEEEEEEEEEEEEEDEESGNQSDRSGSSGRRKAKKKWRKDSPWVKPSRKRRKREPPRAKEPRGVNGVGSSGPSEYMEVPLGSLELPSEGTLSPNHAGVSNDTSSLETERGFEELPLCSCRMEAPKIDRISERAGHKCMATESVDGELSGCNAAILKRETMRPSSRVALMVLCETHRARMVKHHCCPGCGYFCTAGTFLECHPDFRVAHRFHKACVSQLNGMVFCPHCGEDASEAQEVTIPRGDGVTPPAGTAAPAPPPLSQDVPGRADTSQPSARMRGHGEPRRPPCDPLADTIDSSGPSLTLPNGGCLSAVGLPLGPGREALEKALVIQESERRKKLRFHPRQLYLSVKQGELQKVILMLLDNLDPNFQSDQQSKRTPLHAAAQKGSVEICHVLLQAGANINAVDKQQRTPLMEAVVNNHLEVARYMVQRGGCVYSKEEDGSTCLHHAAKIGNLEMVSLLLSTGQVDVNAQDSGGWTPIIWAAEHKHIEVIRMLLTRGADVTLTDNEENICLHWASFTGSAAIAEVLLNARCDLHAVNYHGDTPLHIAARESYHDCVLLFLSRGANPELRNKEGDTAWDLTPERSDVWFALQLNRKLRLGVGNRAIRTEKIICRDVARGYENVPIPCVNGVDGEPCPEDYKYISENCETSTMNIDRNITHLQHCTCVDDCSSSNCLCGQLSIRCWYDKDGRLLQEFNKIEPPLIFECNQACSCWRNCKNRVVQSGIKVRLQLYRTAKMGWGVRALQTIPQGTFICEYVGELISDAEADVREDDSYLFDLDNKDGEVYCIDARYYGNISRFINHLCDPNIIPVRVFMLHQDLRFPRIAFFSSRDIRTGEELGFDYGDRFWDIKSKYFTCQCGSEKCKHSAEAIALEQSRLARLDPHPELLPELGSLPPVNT

[2] = Permeability of compound by PAMPA; assay type: ADME; settings: read-out: permeability
[3] = Aqueous solubility of compound at pH 7.4; assay type: physicochemical
[4] = Metabolic stability in human liver microsomes assessed as compound remaining measured after 30 mins; assay type: ADME, Microsome; settings: read-out: Stability
[5] = target: T1, Histone-lysine N-methyltransferase EHMT2; experiment: Binding affinity to G9a (unknown origin) assessed as dissociation constant by SPR analysis
[6] = target: T2, Histone-lysine N-methyltransferase EHMT2 (Homo sapiens) (UniProt Q96KQ7); experiment: Binding affinity to G9a (unknown origin) assessed as binding constant K(off) by SPR analysis
T2 sequence (whole entry): T1 sequence (Q96KQ7 whole entry)

[7] = Metabolic stability in mouse liver microsomes assessed as compound remaining measured after 30 mins; assay type: ADME, Microsome; settings: read-out: Stability
HUDEP-2 = experiment: Induction of gamma-globin mRNA expression in human HUDEP-2 cells assessed as expression shift from adult-type beta-globin to fetal-type gamma-globin upto 1 uM by […] analysis; assay type: functional, cell-based
[8] = target: T2, Histone-lysine N-methyltransferase EHMT2 (Homo sapiens); experiment: Binding affinity to G9a (unknown origin) assessed as binding constant K(on) by SPR analysis
[9] = Metabolic stability in human liver microsomes assessed as compound remaining measured after 60 mins; assay type: ADME, Microsome; settings: read-out: Stability
[10] = Metabolic stability in mouse liver microsomes assessed as compound remaining measured after 60 mins; assay type: ADME, Microsome; settings: read-out: Stability

IC50 [1] | Papp [2] | solubility [3] | Structure (SMILES) | other results
59 nM | 0.07 ×10⁻⁶ cm/s | > 200 µM | CCCCC(NC(=O)c1[nH]c2c(c1C)C(=O)CC(C)(C)C2)C(=O)Nc1ccc(OCCNC)nc1 (racemic) | –
24 nM | 9.3 ×10⁻⁶ cm/s | 200 µM (≈ 105 µg/mL) | CCCC[C@H](NC(=O)c1[nH]c2c(c1C)C(=O)CC(C)(C)C2)C(=O)Nc1ccc(OC2CCN(C)CC2)cc1 | remaining at 0.5 h [4]: 57%; Kd [5]: 120 nM; K [6]: 0.013 s⁻¹; remaining at 0.5 h [7]: 72%; Activity (HUDEP-2): Active; K [8]: 110000 M⁻¹ s⁻¹; remaining at 1 h [9]: 37%; remaining at 1 h [10]: 58%
65 nM | 4.9 ×10⁻⁶ cm/s | > 200 µM | CCCCC(NC(=O)c1[nH]c2c(c1C)C(=O)CC(C)(C)C2)C(=O)Nc1ccc(OC2CCN(C)CC2)nc1 (racemic) | –
22 nM | 5.9 ×10⁻⁶ cm/s | 192 µM (≈ 100 µg/mL) | CCCCC(NC(=O)c1[nH]c2c(c1C)C(=O)CC(C)(C)C2)C(=O)Nc1ccc(OC2CCN(C)CC2)cc1 (racemic) | –
1000 nM | – | 14 µM (≈ 7.32 µg/mL) | CCCCC(NC(=O)c1[nH]c2c(c1C)C(=O)CC(C)(C)C2)C(=O)Nc1ccc(CCN2CCOCC2)cc1 (racemic) | –
12 nM | 9.5 ×10⁻⁶ cm/s | > 200 µM | CCCCC(NC(=O)c1[nH]c2c(c1C)C(=O)CC(C)(C)C2)C(=O)NCc1ccc(CN(C)C)cc1 (racemic) | –
44 nM | 8.1 ×10⁻⁶ cm/s | 200 µM (≈ 105 µg/mL) | CCCC[C@H](NC(=O)c1[nH]c2c(c1C)C(=O)CC(C)(C)C2)C(=O)Nc1ccc(OC2CCN(C)CC2)nc1 | remaining at 0.5 h [4]: 80%; Kd [5]: 170 nM; K [6]: 0.013 s⁻¹; remaining at 0.5 h [7]: 72%; K [8]: 79000 M⁻¹ s⁻¹; remaining at 1 h [9]: 62%; remaining at 1 h [10]: 53%
930 nM | – | 5.7 µM (≈ 3.09 µg/mL) | CCCCC(NC(=O)c1[nH]c2c(c1C)C(=O)CC(C)(C)C2)C(=O)Nc1ccc(CN2CCC(F)(F)CC2)cc1 (racemic) | –
330 nM | – | 2.5 µM (≈ 1.06 µg/mL) | CCCCC(NC(=O)c1[nH]c2c(c1C)C(=O)CC(C)(C)C2)C(=O)NCc1ccccc1 (racemic) | –
– | – | – | Cc1c(C(=O)N[C@@H](CCC2CC2)C(=O)Nc2ccc(C#N)cc2)[nH]c2c1C(=O)CC(C)(C)C2 | Kd [5]: 750 nM; K [6]: 0.012 s⁻¹; K [8]: 16000 M⁻¹ s⁻¹
74 nM | 0.4 ×10⁻⁶ cm/s | > 200 µM | CCCCC(NC(=O)c1[nH]c2c(c1C)C(=O)CC(C)(C)C2)C(=O)Nc1ccc(OCCN)nc1 (racemic) | –
2800 nM | 2.12 ×10⁻⁶ cm/s | 37 µM (≈ 21.1 µg/mL) | CCCCC(NC(=O)c1[nH]c2c(c1C)C(=O)CC(C)(C)C2)C(=O)Nc1ccc(CCN2CCS(=O)(=O)CC2)cc1 (racemic) | –
1600 nM | – | 2.3 µM (≈ 1.28 µg/mL) | CCCCC(NC(=O)c1[nH]c2c(c1C)C(=O)CC(C)(C)C2)C(=O)Nc1ccc(CCN2CCC(F)(F)CC2)cc1 (racemic) | –
42 nM | – | – | CCCCC(NC(=O)c1[nH]c2c(c1C)C(=O)CC(C)(C)C2)C(=O)Nc1ccc(CN(C)C)cc1 (racemic) | –
44 nM | 12.7 ×10⁻⁶ cm/s | 189 µM (≈ 93.1 µg/mL) | CCCCC(NC(=O)c1[nH]c2c(c1C)C(=O)CC(C)(C)C2)C(=O)Nc1ccc(CN2CCCC2)cc1 (racemic) | –
110 nM | 3.6 ×10⁻⁶ cm/s | > 200 µM | CCCCC(NC(=O)c1[nH]c2c(c1C)C(=O)CC(C)(C)C2)C(=O)Nc1ccc(OCCN(C)C)nc1 (racemic) | –
42 nM | 6.3 ×10⁻⁶ cm/s | 197 µM (≈ 103 µg/mL) | CCCCC(NC(=O)c1[nH]c2c(c1C)C(=O)CC(C)(C)C2)C(=O)Nc1ccc(CCN2CCCCC2)cc1 (racemic) | –
– | 35.9 ×10⁻⁶ cm/s | 7 µM (≈ 2.87 µg/mL) | CCCC[C@H](NC(=O)c1[nH]c2c(c1C)C(=O)CC(C)(C)C2)C(=O)Nc1ccccc1 | remaining at 0.5 h [4]: 22%; remaining at 0.5 h [7]: 11%; remaining at 1 h [9]: 10%; remaining at 1 h [10]: 1.1%
9 nM | 7.2 ×10⁻⁶ cm/s | 201 µM (≈ 96.6 µg/mL) | CCCC[C@H](NC(=O)c1[nH]c2c(c1C)C(=O)CC(C)(C)C2)C(=O)NCc1ccc(CN(C)C)cc1 | remaining at 0.5 h [4]: 52%; remaining at 0.5 h [7]: 78%; remaining at 1 h [9]: 30%; remaining at 1 h [10]: 65%
1300 nM | – | 20 µM (≈ 8.19 µg/mL) | CCCCC(NC(=O)c1[nH]c2c(c1C)C(=O)CC(C)(C)C2)C(=O)Nc1ccccc1 (racemic) | –
– | 29 ×10⁻⁶ cm/s | > 200 µM | CCCCC(NC(=O)c1[nH]c2c(c1C)C(=O)CC(C)(C)C2)C(=O)Nc1cccnc1 (racemic) | –

Reference: ChEMBL document CHEMBL5579841, “Structure-based development of novel substrate-type G9a inhibitors as epigenetic modulators for sickle cell disease treatment” (Bioorg Med Chem Lett, 2024)
